# Legend:
# [1] = test system: RBL-2H3 cell line; assay: Degranulation (β-hexosaminidase, co-secreted with histamine) in RBL-2H3 cells; assay type: cell-based; conditions: RBL-2H3, IgE + antigen DNP-HAS; 120 μL bacterial culture supernatant or ketotifen 20 μg/mL; negative control (Siraganian buffer) = 1.0
# Text: It has been reported that, in an allergic reaction, histamine is expressed in tissues, causing an inflammatory reaction, and suppressing histamine secretion leads to alleviation of allergic symptoms by blocking the reaction by histamine. In the present invention, the alleviation of allergic reactions and the therapeutic effect thereon through inhibition of histamine secretion by KBL697 were further confirmed. Further, in order to confirm whether the effect for treating and preventing chronic allergies identified in Example 1 is an inherent attribute of Lactobacillus gasseri, or is a remarkable effect particularly in KBL697 among Lactobacillus gasseri, the ability to suppress histamine secretion was evaluated also for nine additional Lactobacillus gasseri strains in addition to KBL697. […]
# To identify the activity of β-hexosaminidase, 25 μL of the supernatant collected in Example 2-3 was transferred to each well of a 96-well plate, and then 25 μL of substrate (p-nitrophenyl N-acetyl-D-glucosaminidase) was added to each, and followed by a reaction at 37° C. in the 5% CO2 incubator for 90 minutes. Then, 200 μL of stop solution (Na2CO3/NaHCO3) was added to stop the reaction and then absorbance was measured at 405 nm. […]
# [2] = test system: C57BL6 mice with DSS-induced colitis; assay: DSS-induced colitis in C57BL6 mice, KBL697 with or without infliximab; assay type: in vivo, mouse; conditions: administered alone
# Text: Infliximab (product name Remicade) is a therapeutic recombinant antibody drug used as an injection for autoimmune diseases such as rheumatoid arthritis, ankylosing spondylitis, ulcerative colitis, Crohn's disease in adults, Crohn's disease in children, psoriasis, and psoriatic arthritis. The purpose of this study was to confirm the effect of improving intestinal disease symptoms in vivo in the case of concurrent administration of KBL697 and infliximab.
# After dividing C57BL6 mice into groups of eight mice, the mice were fed tap water with 2% DSS dissolved therein for 8 days (D0 to D7), inducing colitis. At the same time, 200 μL of PBS was orally administered to the mice in the control group for 14 days (D0 to D13) daily, while 200 μL of the KBL697 strain diluted in PBS to 1×10^10 CFU/mL was orally administered to the mice in the group dosed with KBL697 so that the amount of daily administration could be set at 2×10^9 CFU. […] During the 14 days in which colitis was induced by DSS, the body weight changes of the mice in the control group and each test group were measured daily, and on the 14th day after DSS was supplied (D14), mice were subjected to autopsies to measure the length of the colon.
Compound,β-hexosaminidase (fold change) [1] [fold change],"width of decrease in the colon length compared to control group (DSS+PBS) ([2]; 2% DSS 8 days, KBL697 2×10^9 CFU oral daily, infliximab 5 mg/kg, D14, FIGS. 18A, 18B)","effect on body weight decrease compared to control group ([2]; 2% DSS, when 14 days elapsed after the administration)"
"CN1CCC(=C2c3ccccc3CC(=O)c3sccc32)CC1 [Ketotifen, ketotifen]",0.3861,,
infliximab: therapeutic recombinant antibody drug (product name Remicade),,significantly improved,significantly improved

# Reference: patent publication US11819526B2, “Lactobacillus Gasseri KBL697 strain and use thereof” (KoBioLabs, Inc., priority 2018, dated 2023)
